Columns and labels:
Experiment in all cases: KINOMEscan
Assay type in all cases: binding
Details in all cases: read-out: Remaining enzyme activity
ABL1 = target: T1, ABL1 (Homo sapiens, UniProt P00519)
T1 construct: purchased Ambit (DiscoverX) KINOMEscan; Cerep
Description: (§1) The KINOMEscan was carried out by Ambit (San Diego, USA) according to a previously established protocol. The experiment was based on a competition binding assay that quantitatively measures the ability of a compound to compete with an immobilized, active-site directed ligand. The assay is performed by combining three components: DNA-tagged kinase; immobilized ligand; and a test compound. The ability of the test compound to compete with the immobilized ligand is measured via quantitative PCR of the DNA tag.
(§2) For most assays, kinase-tagged T7 phage strains were grown in parallel in 24-well blocks in an Escherichia coli host derived from the BL21 strain. E. coli were grown to log-phase and infected with T7 phage from a frozen stock and incubated with shaking at 32 °C until lysis (90–150 min). The lysates were centrifuged (6,000g) and filtered (0.2 μm) to remove cell debris. The remaining kinases were produced in HEK-293 cells (Sigma Aldrich, catalogue number: 85120602) and subsequently tagged with DNA for quantitative PCR detection. […] The liganded beads were blocked with excess biotin and washed with blocking buffer (SeaBlock (Pierce), 1% bovine serum albumin, 0.05% Tween 20 and 1 mM dithiothreitol) to remove unbound ligand and to reduce non-specific phage binding. […] SC81458 was prepared as 40x stock in 100% DMSO and directly diluted into the assay to a final concentration of 10 μM. All reactions were performed in polypropylene 384-well plates in a final volume of 0.04 ml. […] The kinase concentration in the eluates was measured by quantitative PCR.

ADCK4 = target: T2, ADCK4 (Homo sapiens, UniProt Q96D53)
T2 construct: purchased Ambit (DiscoverX) KINOMEscan; Cerep
Description: as §1, §2

AKT3 = target: T3, AKT3 (Homo sapiens, UniProt Q9Y243)
T3 construct: purchased Ambit (DiscoverX) KINOMEscan; Cerep
Description: as §1, §2

ALK = target: T4, ALK (Homo sapiens, UniProt Q9UM73)
T4 construct: purchased Ambit (DiscoverX) KINOMEscan; Cerep
Description: as §1, §2

AURKB = target: T5, AURKB (Homo sapiens, UniProt Q96GD4)
T5 construct: purchased Ambit (DiscoverX) KINOMEscan; Cerep
Description: as §1, §2

CDK5 = target: T6, CDK5 (Homo sapiens, UniProt Q00535)
T6 construct: purchased Ambit (DiscoverX) KINOMEscan; Cerep
Description: as §1, §2

CDK9 = target: T7, CDK9 (Homo sapiens, UniProt P50750)
T7 construct: purchased Ambit (DiscoverX) KINOMEscan; Cerep
Description: as §1, §2

CLK1 = target: T8, CLK1 (Homo sapiens, UniProt P49759)
T8 construct: purchased Ambit (DiscoverX) KINOMEscan; Cerep
T8 sequence (P49759 whole entry): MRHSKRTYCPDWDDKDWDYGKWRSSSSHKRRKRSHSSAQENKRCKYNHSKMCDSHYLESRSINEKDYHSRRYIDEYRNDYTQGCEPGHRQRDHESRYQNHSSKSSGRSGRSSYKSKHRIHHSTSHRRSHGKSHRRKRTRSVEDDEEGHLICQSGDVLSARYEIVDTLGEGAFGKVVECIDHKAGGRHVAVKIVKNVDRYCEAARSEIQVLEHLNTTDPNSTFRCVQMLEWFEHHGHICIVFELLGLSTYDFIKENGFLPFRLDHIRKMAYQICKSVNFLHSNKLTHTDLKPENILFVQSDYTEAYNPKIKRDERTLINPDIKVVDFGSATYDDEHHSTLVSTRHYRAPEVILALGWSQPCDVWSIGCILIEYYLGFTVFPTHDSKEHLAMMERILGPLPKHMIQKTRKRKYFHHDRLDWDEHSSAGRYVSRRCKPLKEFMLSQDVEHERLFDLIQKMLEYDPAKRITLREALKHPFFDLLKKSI
Description: as §1, §2

CSK = target: T9, CSK (Homo sapiens, UniProt P41240)
T9 construct: purchased Ambit (DiscoverX) KINOMEscan; Cerep
T9 sequence (P41240 whole entry): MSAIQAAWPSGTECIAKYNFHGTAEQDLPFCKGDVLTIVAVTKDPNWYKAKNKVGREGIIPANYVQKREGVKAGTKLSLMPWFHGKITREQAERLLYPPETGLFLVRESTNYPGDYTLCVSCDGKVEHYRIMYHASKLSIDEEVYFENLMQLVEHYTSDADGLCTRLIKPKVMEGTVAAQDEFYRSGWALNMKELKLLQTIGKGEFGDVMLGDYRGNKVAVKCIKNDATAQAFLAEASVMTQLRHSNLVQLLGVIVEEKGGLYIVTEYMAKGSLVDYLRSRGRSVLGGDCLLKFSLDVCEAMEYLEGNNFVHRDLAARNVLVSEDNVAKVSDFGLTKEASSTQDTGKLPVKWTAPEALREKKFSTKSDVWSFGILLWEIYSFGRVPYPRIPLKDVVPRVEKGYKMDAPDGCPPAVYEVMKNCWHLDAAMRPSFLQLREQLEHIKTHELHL
Description: as §1, §2

CSNK1e = target: T10, CSNK1e (Homo sapiens, UniProt P49674)
T10 construct: purchased Ambit (DiscoverX) KINOMEscan; Cerep
T10 sequence (P49674 whole entry): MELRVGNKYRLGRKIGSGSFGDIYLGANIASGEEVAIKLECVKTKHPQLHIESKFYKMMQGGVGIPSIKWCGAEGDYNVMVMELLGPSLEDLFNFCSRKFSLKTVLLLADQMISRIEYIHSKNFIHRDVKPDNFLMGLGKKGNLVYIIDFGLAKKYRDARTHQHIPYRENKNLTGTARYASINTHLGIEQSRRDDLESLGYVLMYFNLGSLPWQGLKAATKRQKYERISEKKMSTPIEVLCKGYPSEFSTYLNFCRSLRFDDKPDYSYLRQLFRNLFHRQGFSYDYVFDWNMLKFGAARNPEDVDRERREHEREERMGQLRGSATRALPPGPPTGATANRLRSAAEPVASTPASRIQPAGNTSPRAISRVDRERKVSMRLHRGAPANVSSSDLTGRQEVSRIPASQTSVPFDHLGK
Description: as §1, §2

CSNK1g2 = target: T11, CSNK1g2 (Homo sapiens, UniProt P78368)
T11 construct: purchased Ambit (DiscoverX) KINOMEscan; Cerep
T11 sequence (P78368 whole entry): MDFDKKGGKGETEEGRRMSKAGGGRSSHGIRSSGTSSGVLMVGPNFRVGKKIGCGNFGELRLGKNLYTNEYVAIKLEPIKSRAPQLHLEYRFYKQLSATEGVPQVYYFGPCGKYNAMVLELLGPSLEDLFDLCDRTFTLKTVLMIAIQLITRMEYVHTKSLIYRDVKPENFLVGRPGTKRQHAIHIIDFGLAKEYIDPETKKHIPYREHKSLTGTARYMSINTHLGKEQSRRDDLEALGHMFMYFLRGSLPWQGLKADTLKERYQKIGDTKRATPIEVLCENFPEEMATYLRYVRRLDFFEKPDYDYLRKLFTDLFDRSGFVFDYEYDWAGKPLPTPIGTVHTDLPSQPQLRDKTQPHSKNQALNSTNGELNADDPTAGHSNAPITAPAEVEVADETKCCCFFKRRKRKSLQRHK
Description: as §1, §2

CSNK2a1 = target: T12, CSNK2a1 (Homo sapiens, UniProt P68400)
T12 construct: purchased Ambit (DiscoverX) KINOMEscan; Cerep
Description: as §1, §2

CSNK2a2 = target: T13, CSNK2a2 (Homo sapiens, UniProt P19784)
T13 construct: purchased Ambit (DiscoverX) KINOMEscan; Cerep
Description: as §1, §2

DAPK2 = target: T14, DAPK2 (Homo sapiens, UniProt Q9UIK4)
T14 construct: purchased Ambit (DiscoverX) KINOMEscan; Cerep
Description: as §1, §2

DYRK1a = target: T15, DYRK1a (Homo sapiens, UniProt Q13627)
T15 construct: purchased Ambit (DiscoverX) KINOMEscan; Cerep
Description: as §1, §2

EGFR(G719S) = target: T16, EGFR(G719S) (Homo sapiens, UniProt P00533, G719S)
T16 construct: purchased Ambit (DiscoverX) KINOMEscan; Cerep
Description: as §1, §2

EGFR(L858R, T790M) = target: T17, EGFR(L858R, T790M) (Homo sapiens, UniProt P00533, L858R/T790M)
T17 construct: purchased Ambit (DiscoverX) KINOMEscan; Cerep
Description: as §1, §2

EPHA8 = target: T18, EPHA8 (Homo sapiens, UniProt P29322)
T18 construct: purchased Ambit (DiscoverX) KINOMEscan; Cerep
T18 sequence (P29322 28-1005): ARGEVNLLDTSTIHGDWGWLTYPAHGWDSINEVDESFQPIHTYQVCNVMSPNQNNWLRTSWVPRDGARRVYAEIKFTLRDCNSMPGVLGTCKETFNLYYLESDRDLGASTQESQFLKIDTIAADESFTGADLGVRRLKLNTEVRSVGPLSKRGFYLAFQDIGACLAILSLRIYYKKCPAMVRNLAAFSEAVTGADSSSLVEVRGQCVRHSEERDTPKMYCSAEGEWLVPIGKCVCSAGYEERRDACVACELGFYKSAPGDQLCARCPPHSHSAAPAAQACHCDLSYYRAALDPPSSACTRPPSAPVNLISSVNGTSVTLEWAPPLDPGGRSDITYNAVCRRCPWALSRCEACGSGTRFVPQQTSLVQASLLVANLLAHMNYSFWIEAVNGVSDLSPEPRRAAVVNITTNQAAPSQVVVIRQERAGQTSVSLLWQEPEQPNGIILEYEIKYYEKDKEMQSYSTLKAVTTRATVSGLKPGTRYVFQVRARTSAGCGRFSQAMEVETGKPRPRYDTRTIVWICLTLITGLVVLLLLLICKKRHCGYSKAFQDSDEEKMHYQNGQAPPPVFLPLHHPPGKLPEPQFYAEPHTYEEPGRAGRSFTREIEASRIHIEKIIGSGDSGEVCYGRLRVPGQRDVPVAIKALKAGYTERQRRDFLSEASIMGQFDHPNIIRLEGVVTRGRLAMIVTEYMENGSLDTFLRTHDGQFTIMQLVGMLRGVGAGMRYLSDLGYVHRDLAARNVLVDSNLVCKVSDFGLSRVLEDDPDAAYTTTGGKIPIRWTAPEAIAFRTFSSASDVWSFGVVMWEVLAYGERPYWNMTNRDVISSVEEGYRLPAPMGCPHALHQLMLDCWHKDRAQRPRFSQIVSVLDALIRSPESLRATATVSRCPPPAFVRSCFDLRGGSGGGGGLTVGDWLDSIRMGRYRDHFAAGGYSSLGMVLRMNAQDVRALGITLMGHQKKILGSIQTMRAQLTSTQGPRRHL
Description: as §1, §2

ERK2 = target: T19, ERK2 (Homo sapiens, UniProt P28482)
T19 construct: purchased Ambit (DiscoverX) KINOMEscan; Cerep
T19 sequence (P28482 whole entry): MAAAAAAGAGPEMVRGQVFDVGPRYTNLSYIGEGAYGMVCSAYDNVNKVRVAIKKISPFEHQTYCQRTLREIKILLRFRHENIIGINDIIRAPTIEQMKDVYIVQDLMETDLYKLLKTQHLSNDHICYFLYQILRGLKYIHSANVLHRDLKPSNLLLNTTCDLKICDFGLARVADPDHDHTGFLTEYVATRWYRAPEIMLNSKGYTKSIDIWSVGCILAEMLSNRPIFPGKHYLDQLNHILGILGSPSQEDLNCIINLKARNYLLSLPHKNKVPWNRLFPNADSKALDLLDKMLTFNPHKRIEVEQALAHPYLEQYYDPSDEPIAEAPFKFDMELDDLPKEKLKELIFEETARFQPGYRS
Description: as §1, §2

FGFR2 = target: T20, FGFR2 (Homo sapiens, UniProt P21802)
T20 construct: purchased Ambit (DiscoverX) KINOMEscan; Cerep
T20 sequence (P21802 22-821): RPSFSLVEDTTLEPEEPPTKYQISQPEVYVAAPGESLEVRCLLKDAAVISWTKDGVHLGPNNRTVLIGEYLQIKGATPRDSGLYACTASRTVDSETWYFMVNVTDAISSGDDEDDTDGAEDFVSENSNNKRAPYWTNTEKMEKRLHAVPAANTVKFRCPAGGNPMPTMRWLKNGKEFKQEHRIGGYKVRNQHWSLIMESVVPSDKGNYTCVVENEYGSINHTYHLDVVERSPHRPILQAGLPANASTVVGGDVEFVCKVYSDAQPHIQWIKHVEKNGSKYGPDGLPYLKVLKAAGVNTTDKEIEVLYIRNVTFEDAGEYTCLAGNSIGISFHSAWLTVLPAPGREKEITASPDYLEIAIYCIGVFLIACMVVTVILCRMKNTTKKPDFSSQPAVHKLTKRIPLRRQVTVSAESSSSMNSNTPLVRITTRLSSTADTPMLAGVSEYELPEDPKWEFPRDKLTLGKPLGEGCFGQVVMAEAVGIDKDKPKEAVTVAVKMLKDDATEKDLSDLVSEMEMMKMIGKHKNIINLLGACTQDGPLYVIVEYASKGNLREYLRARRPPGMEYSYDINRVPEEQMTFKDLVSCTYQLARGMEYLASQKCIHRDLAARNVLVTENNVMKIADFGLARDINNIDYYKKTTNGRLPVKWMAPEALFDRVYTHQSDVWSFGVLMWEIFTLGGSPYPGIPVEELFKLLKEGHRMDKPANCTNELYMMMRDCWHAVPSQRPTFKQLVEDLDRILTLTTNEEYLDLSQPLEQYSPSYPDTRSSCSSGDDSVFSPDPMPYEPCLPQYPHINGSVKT
Description: as §1, §2

MAP4K2 = target: T21, MAP4K2 (Homo sapiens, UniProt Q12851)
T21 construct: purchased Ambit (DiscoverX) KINOMEscan; Cerep
Description: as §1, §2

MYLK2 = target: T22, MYLK2 (Homo sapiens, UniProt Q9H1R3)
T22 construct: purchased Ambit (DiscoverX) KINOMEscan; Cerep
Description: as §1, §2

NLK = target: T23, NLK (Homo sapiens, UniProt Q9UBE8)
T23 construct: purchased Ambit (DiscoverX) KINOMEscan; Cerep
T23 sequence (Q9UBE8 whole entry): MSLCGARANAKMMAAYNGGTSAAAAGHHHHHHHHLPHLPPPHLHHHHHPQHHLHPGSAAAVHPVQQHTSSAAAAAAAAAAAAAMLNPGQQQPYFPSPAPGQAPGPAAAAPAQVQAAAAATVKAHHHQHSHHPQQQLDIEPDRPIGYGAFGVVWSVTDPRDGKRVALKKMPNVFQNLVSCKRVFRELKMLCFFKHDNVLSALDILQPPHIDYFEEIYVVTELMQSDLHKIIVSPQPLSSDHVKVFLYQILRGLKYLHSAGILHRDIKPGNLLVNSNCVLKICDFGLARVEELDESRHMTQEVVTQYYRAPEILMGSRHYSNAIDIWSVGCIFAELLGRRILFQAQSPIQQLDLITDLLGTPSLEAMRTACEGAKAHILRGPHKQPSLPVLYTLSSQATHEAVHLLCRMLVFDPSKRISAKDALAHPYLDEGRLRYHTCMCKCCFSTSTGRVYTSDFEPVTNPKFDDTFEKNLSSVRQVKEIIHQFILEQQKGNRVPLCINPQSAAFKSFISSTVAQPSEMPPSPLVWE
Description: as §1, §2

PAK3 = target: T24, PAK3 (Homo sapiens, UniProt O75914)
T24 construct: purchased Ambit (DiscoverX) KINOMEscan; Cerep
Description: as §1, §2

PCTK2 = target: T25, PCTK2 (Homo sapiens, UniProt Q00537)
T25 construct: purchased Ambit (DiscoverX) KINOMEscan; Cerep
Description: as §1, §2

PIK3CA(H1047L) = target: T26, PIK3CA(H1047L) (Homo sapiens, UniProt P42336, H1047L)
T26 construct: purchased Ambit (DiscoverX) KINOMEscan; Cerep
Description: as §1, §2

PIK3CA(Q546K) = target: T27, PIK3CA(Q546K) (Homo sapiens, UniProt P42336, Q546K)
T27 construct: purchased Ambit (DiscoverX) KINOMEscan; Cerep
Description: as §1, §2

PRKG1 = target: T28, PRKG1 (Homo sapiens, UniProt Q13976)
T28 construct: purchased Ambit (DiscoverX) KINOMEscan; Cerep
Description: as §1, §2

PYK2 = target: T29, PYK2 (Homo sapiens, UniProt Q14289)
T29 construct: purchased Ambit (DiscoverX) KINOMEscan; Cerep
Description: as §1, §2

SRPK3 = target: T30, SRPK3 (Homo sapiens, UniProt Q9UPE1)
T30 construct: purchased Ambit (DiscoverX) KINOMEscan; Cerep
T30 sequence (Q9UPE1 whole entry): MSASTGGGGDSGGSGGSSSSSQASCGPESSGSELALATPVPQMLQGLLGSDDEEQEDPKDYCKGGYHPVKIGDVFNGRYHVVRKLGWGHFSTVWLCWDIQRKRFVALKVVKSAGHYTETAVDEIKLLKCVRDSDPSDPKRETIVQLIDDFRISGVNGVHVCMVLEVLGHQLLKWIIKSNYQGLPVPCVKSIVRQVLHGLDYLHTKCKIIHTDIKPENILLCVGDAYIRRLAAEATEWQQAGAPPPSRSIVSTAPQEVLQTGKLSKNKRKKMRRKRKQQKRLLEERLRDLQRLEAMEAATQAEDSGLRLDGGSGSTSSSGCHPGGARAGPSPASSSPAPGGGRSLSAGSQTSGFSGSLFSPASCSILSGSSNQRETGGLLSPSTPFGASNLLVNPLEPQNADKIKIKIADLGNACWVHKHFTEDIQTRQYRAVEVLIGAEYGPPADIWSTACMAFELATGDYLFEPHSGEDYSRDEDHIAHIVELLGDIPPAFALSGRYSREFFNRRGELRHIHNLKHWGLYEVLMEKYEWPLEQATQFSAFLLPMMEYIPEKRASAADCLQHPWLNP
Description: as §1, §2

STK36 = target: T31, STK36 (Homo sapiens, UniProt Q9NRP7)
T31 construct: purchased Ambit (DiscoverX) KINOMEscan; Cerep
Description: as §1, §2

STK39 = target: T32, STK39 (Homo sapiens, UniProt Q9UEW8)
T32 construct: purchased Ambit (DiscoverX) KINOMEscan; Cerep
Description: as §1, §2

SgK110 = target: T33, SgK110 (Homo sapiens, UniProt P0C264)
T33 construct: purchased Ambit (DiscoverX) KINOMEscan; Cerep
Description: as §1, §2

TLK2 = target: T34, TLK2 (Homo sapiens, UniProt Q86UE8)
T34 construct: purchased Ambit (DiscoverX) KINOMEscan; Cerep
Description: as §1, §2

CCCCN1CCN(C(=N)c2cccc(NC(=O)Nc3ccc(S(=O)(=O)NCc4ccc(S(N)(=O)=O)cc4)cc3)c2)CC1 [SC81458, 4-(3-(3-((4-butylpiperazin-1-yl)(imino)methyl)phenyl)ureido)-N-(4-sulfamoylbenzyl) benzenesulfonamide]
remaining binding at 10 µM (ABL1): 100%
remaining binding at 10 µM (ADCK4): 100%
remaining binding at 10 µM (AKT3): 66%
remaining binding at 10 µM (ALK): 100%
remaining binding at 10 µM (AURKB): 78%
remaining binding at 10 µM (CDK5): 100%
remaining binding at 10 µM (CDK9): 100%
remaining binding at 10 µM (CLK1): 100%
remaining binding at 10 µM (CSK): 100%
remaining binding at 10 µM (CSNK1e): 100%
remaining binding at 10 µM (CSNK1g2): 100%
remaining binding at 10 µM (CSNK2a1): 62%
remaining binding at 10 µM (CSNK2a2): 78%
remaining binding at 10 µM (DAPK2): 100%
remaining binding at 10 µM (DYRK1a): 100%
remaining binding at 10 µM (EGFR(G719S)): 100%
remaining binding at 10 µM (EGFR(L858R, T790M)): 100%
remaining binding at 10 µM (EPHA8): 83%
remaining binding at 10 µM (ERK2): 80%
remaining binding at 10 µM (FGFR2): 100%
remaining binding at 10 µM (MAP4K2): 100%
remaining binding at 10 µM (MYLK2): 100%
remaining binding at 10 µM (NLK): 95%
remaining binding at 10 µM (PAK3): 93%
remaining binding at 10 µM (PCTK2): 97%
remaining binding at 10 µM (PIK3CA(H1047L)): 100%
remaining binding at 10 µM (PIK3CA(Q546K)): 100%
remaining binding at 10 µM (PRKG1): 86%
remaining binding at 10 µM (PYK2): 98%
remaining binding at 10 µM (SRPK3): 83%
remaining binding at 10 µM (STK36): 100%
remaining binding at 10 µM (STK39): 57%
remaining binding at 10 µM (SgK110): 100%
remaining binding at 10 µM (TLK2): 97%

Reference: article PMC5290327, “SC83288 is a clinical development candidate for the treatment of severe malaria” (Nature Communications, 2017)
